Literature values, collected in patent US20090215676A1, “Method of treatment” (priority 2005, published 2009).
Where two headings read alike, the source gives them in different places.

Legend:
[1] = tested on: GH and IGF-1 levels; details: for acromegalic patients in whom GH and IGF-1 levels are reduced: human, in vivo; for share of responding patients whose GH and IGF-1 levels are reduced to normal levels (full responders): of the approximately 90% who respond
[2] = tested on: IGF-I levels; details: for daily pegvisomant dose needed: former pegvisomant registration studies
[3] = tested on: IGF-I; details: once weekly pegvisomant dose of 80 mg, monotherapy
[4] = tested on: IGF-I; details: alternate day administration, monotherapy; of 10 patients
[5] = tested on: insulin sensitivity; details: in vivo
[6] = tested on: tumor size

CC(C)[C@@H]1NC(=O)[C@H](CCCCN)NC(=O)[C@@H](Cc2c[nH]c3ccccc23)NC(=O)[C@H](Cc2ccc(O)cc2)NC(=O)[C@@H](NC(=O)[C@H](N)Cc2ccc3ccccc3c2)CSSC[C@@H](C(=O)N[C@H](C(N)=O)[C@@H](C)O)NC1=O [LANREOTIDE]
acromegalic patients in whom GH and IGF-1 levels are reduced [1]: approximately 90%
share of responding patients whose GH and IGF-1 levels are reduced to normal levels (full responders) [1]: one-half to two-thirds

C[C@@H](O)[C@@H]1NC(=O)[C@H](CCCCN)NC(=O)[C@@H](Cc2c[nH]c3ccccc23)NC(=O)[C@H](Cc2ccccc2)NC(=O)[C@@H](NC(=O)[C@H](N)Cc2ccccc2)CSSC[C@@H](C(=O)N[C@H](CO)[C@@H](C)O)NC1=O [OCTREOTIDE]
acromegalic patients in whom GH and IGF-1 levels are reduced [1]: approximately 90%
share of responding patients whose GH and IGF-1 levels are reduced to normal levels (full responders) [1]: one-half to two-thirds

pegvisomant
daily pegvisomant dose needed ([2]; one subject): 35 mg
daily dose needed by the average patient ([2]; pegvisomant monotherapy): approximately 20 mg
acromegalics with IGF-I levels normalized ([2]; pegvisomant monotherapy, listed as PEGVISOMANT): 75%-95%
acromegalics with IGF-I levels normalized ([2]; pegvisomant monotherapy, listed as Pegvisomant): > 90%
daily pegvisomant dose needed ([2]; two subjects): 40 mg
share of patients with IGF-I normalized [3]: less than one-third
patients in whom the regimen failed to maintain IGF-I within the age-adjusted normal range [4]: 7 patients
effect on insulin sensitivity [5]: improves insulin sensitivity as compared to somatostatin analogues
effect on tumor growth ([6]; clinical experience): does not prevent tumor growth in some patients
effect on mean tumor size ([6]; follow-up with pegvisomant monotherapy to date): do not indicate that pegvisomant increases mean tumor size
